{
  "source": "patent EP0428423A2",
  "about": "“Aryloxy alkyl benzenes, processes for their preparation and pharmaceutical compositions containing them” (LIPHA S.A., priority 1989, dated 1991)",
  "key": {"[1]": {"system": "rats mâles SHR (souche OKAMOTO)", "assay": "Antihypertensive action in the non-anaesthetised SHR rat (systolic blood pressure, sphygmomanometric method)", "type": "in vivo", "settings": "A = Aigu, 100 mg/kg PO, 24 h after dosing", "text": "L'étude a été effectuée sur des lots de rats mâles SHR (souche OKAMOTO) âgés de 16 semaines. La pression artérielle systolique est déterminée par la méthode sphygmomanométrique (électro sphygmogra- phe NARCO biosystems type PE 300). Les mesures de tension sont réalisées 24 heures après administration d'un composé de formule générale I, la pression artérielle systolique est calculée à partir de la moyenne de 6 à 8 mesures."}, "[2]": {"system": "plasmas riches en plaquettes provenant de sang de rat", "assay": "Platelet anti-aggregation in vitro, ADP-induced (Born aggregometer)", "type": "cell-based", "settings": "in vitro, aggregating agent ADP, rat platelet-rich plasma, 37°; M not defined in the text; mM printed only in the TICLOPIDINE line", "description": "Les études ont été réalisées sur des plasmas riches en plaquettes provenant de sang de rat, l'agrégation étant induite par addition d'acide Adénosine diphosphorique. Les courbes néphélométriques d'agrégation sont obtenues en utilisant un agrégomètre de type BORN, le plasma étant placé en incubation à 37° avec agitation continue de 1100 t/mn (cf. BORN G.V.R et CROSS J. - J. Physiol. 168 (1962) 178."}, "SOURIS": {"system": "SOURIS", "assay": "Diuretic activity in the mouse (hourly urine volume, sodium and potassium assay)", "type": "in vivo", "settings": "Mus musculus, po; S = SOURIS; diuretic activity; read-out: Dose minimale active", "text": "(§1) d'urine sont déterminés toutes les heures. Le dosage de sodium et du potassium est effectué par spectrophotométrie."}, "COTRANSPORT Na-K": {"molecular_target": "T1, COTRANSPORT Na-K (Homo sapiens, UniProt P55011)", "T1 construct": "systèmes de transport du sodium et du potassium des érythrocytes humains; endogenous in cells; host or cells: human erythrocytes", "T1 sequence (P55011 1-1212)": "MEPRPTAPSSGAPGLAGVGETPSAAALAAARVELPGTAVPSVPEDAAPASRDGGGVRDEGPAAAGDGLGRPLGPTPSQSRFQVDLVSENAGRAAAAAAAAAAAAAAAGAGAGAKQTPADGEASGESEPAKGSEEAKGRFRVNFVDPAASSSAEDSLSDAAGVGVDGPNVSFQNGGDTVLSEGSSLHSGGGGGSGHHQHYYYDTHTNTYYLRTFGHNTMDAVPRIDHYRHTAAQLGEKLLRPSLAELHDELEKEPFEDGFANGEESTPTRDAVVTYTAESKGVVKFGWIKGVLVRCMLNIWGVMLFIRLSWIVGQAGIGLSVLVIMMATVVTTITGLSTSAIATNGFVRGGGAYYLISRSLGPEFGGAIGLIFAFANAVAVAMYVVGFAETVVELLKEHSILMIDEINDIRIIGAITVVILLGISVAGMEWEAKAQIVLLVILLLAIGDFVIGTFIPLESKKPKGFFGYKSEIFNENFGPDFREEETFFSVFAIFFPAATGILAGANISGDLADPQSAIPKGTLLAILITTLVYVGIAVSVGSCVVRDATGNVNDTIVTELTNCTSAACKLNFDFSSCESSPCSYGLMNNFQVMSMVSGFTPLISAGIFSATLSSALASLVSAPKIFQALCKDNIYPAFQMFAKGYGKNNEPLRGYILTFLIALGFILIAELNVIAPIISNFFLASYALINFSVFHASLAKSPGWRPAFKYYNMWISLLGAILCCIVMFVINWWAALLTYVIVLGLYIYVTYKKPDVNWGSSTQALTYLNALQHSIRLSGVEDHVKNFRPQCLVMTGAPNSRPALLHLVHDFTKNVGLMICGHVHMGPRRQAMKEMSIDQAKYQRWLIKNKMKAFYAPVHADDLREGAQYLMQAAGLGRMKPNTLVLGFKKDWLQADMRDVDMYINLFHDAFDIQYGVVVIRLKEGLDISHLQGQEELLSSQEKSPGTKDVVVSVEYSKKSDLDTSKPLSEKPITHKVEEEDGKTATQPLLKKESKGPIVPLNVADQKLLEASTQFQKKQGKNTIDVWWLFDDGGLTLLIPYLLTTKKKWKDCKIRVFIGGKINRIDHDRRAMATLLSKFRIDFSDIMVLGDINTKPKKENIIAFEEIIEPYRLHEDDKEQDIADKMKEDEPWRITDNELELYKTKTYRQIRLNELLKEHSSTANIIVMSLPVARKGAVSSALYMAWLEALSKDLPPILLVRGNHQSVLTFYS", "assay": "Na-K cotransport of human erythrocytes", "type": "cell-based, ERYTHROCYTES HUMAINS", "settings": "human erythrocytes; read-out: EFFET SUR LE COTRANSPORT Na-K IC 50", "text": "Cet effet a été étudié selon la méthodologie décrite par G. GARAY et coll. dans Naunyn-Schmidberg's Arch. Pharmakol. […] Pharm."}, "RAT": {"system": "RAT", "assay": "Diuretic activity in the rat (hourly urine volume, sodium and potassium assay)", "type": "in vivo", "settings": "po; R = RAT; diuretic activity; read-out: Dose minimale active", "text": "as §1"}},
  "data": [
    {"smiles": "Cc1ccc(O)c(CCOc2ccccc2)c1", "note": "[ex 36]", "values": [
      {"measurement": "Variation de l'effet anti-hyper-tenseur 24 heures après produit", "setting": "[1]", "value": "Non actif"},
      {"measurement": "M à 50", "setting": "[2]", "value": "inactif"},
      {"measurement": "minimal effective dose", "setting": "SOURIS", "value": 100, "unit": "mg/kg"},
      {"measurement": "IC50", "setting": "COTRANSPORT Na-K", "value": "> 600", "unit": "µM"},
      {"measurement": "minimal effective dose", "setting": "RAT", "value": 100, "unit": "mg/kg"}
    ]}
  ]
}
